In patent US20250304717A1, “CAMPTOTHECIN DERIVATIVE AND LIGAND-DRUG CONJUGATE” (HAINAN SIMCERE ZAIMING PHARMACEUTICAL CO., LTD., priority 2022, published 2025) one finds IC50 data, which are given here for 15 compounds.

Where two headings read alike, the source gives them in different places. Some results are limits rather than exact numbers.

As usually defined, the IC50 is the midpoint of a concentration-inhibition curve.

The subject of assay [1] is OVCAR3 cells. The assay is described as follows: Anti-tumor cell proliferation activity of compound of formula (D-H), Cell-Titer Glo, OVCAR3. The assay is classed as cell-based. As to conditions: Homo sapiens, OVCAR-3, 120 h. As to the method:
(§1) Cell culture: HCT116 cells and SKBR3 cells were cultured with a McCoy's 5a medium containing 10% fetal bovine serum+1% penicillin-streptomycin at 37° C. with 5% CO2, and OVCAR3 cells were cultured with a 1640 medium containing 20% fetal bovine serum+2 μg/mL bovine insulin+1% penicillin-streptomycin at 37° C. with 5% CO2. Cells at logarithmic growth phase were available for the experiment.
(§2) Cell proliferation activity test: The Cell-Titer Glo reagent was used to test the compound for inhibitory activity on proliferation of the three cell strains HCT116, SKBR3, and OVCAR3. HCT116 cells (1500 per well), SKBR3 cells (3000 per well), and OVCAR3 cells (5000 per well) were seeded on 96-well plates and incubated at 37° C. with 5% CO2 for 24 h. After a solution of the compound to be detected was added (the compound was dissolved in DMSO so that the compound concentration was 1 mM, then the compound was diluted to […] in DMSO at 9 concentrations in a 3-fold dilution, and 10 μL of the prepared compound solution was transferred to the 96-well plate so that the final concentration was 0-300 nM), the mixture was incubated at 37° C. with 5% CO2. HCT116 cells were cultured for 3 days, and SKBR3 cells and OVCAR3 cells were cultured for 5 days. The Cell-Titer Glo reagent was added and the cell activity was measured.
(§3) A negative control group and a positive control group were respectively used as Bottom and Top. The negative control group was not added with cells, only added with the culture medium in the same volume, and other operations were consistent with those of the experimental group. The positive control group was not added with the test drug, and other operations were consistent with those of the experimental group.
(§4) Data analysis: % Inhibition was calculated, and compound IC50 was fitted.
(§5) % Inhibition=1-100%×(Signal−Bottom)/(Top−Bottom).
(§6) Signal referred to the signal value of the experimental group, Bottom referred to the average signal value of the negative control group, and Top referred to the average signal value of the positive control group.

In assay [2] the test system is SKBR3 cells. The experiment in a line: Anti-tumor cell proliferation activity of compound of formula (D-H), Cell-Titer Glo, SKBR3. The format is cell-based, human. How it is done: as §1, §2, §3, §4, §5, §6
The test system of assay [3] is HCT116 cells. The assay is described as follows: Anti-tumor cell proliferation activity of compound of formula (D-H), Cell-Titer Glo, HCT116. The format is cell-based. Conditions: Homo sapiens, HCT-116, 72 h. As to the method: as §1, §2, §3, §4, §5, §6
Where [4] appears, read: read-out: OVCAR3 Antiproliferative activity IC50 (nM).
[5] abbreviates: Homo sapiens, SK-BR-3, 120 h, read-out: SKBR3 Antiproliferative activity IC50 (nM), SKBR3 cells, 5 days.
The mark [6] stands for this setting: read-out: HCT116 Antiproliferative activity IC50 (nM), HCT116 cells, 3 days.
The mark [7] stands for this setting: OVCAR3 cells, 5 days, read-out: OVCAR3 Antiproliferative activity IC50.
Setting [8] is: HCT116 cells, 3 days, read-out: HCT116 Antiproliferative activity IC50.

`CC[C@@]1(O)C(=O)OCc2c1cc1n(c2=O)Cc2c-1nc1cc(Cl)c(C)cc1c2CNC(=O)CO` [Compound 6, (S)-N-((8-chloro-4-ethyl-4-hydroxy-9-methyl-3,14-dioxo-3,4,12,14-tetrahydro-1H-pyrano[3′,4′:6,7]indolizino[1,2-b]quinolin-11-yl)methyl)-2-hydroxyacetamide]: the 50% inhibitory concentration (IC50) in assay [1] (setting [4]) is 2.1 nM; in assay [2] (setting [5]), 4.8 nM.

In the case of `CC[C@@]1(O)C(=O)OCc2c1cc1n(c2=O)Cc2c-1nc1cc3c(cc1c2CNC(=O)C(O)C1CC1)OCO3` (stereo partly drawn) [Compound 14, 2-cyclopropyl-N—(((S)-7-ethyl-7-hydroxy-8,11-dioxo-7,8,11,13-tetrahydro-10H-[1,3]dioxolo[4,5-g]pyrano[3′,4′:6,7]indolizino[1,2-b]quinolin-14-yl)methyl)-2-hydroxyacetamide], the IC50 is 0.9 nM in assay [1] (setting [4]), below 10 nM in assay [3] (setting [6]) and 2.2 nM in assay [2] (setting [5]).

In the case of `CC[C@@]1(O)C(=O)OCc2c1cc1n(c2=O)Cc2c-1nc1cc3c(cc1c2CNC(=O)[C@@H](O)C1CC1)OCO3` [Compound 14-P1, (S)-2-cyclopropyl-N—(((S)-7-ethyl-7-hydroxy-8,11-dioxo-7,8,11,13-tetrahydro-10H-[1,3]dioxolo[4,5-g]pyrano[3′,4′:6,7]indolizino[1,2-b]quinolin-14-yl)methyl)-2-hydroxyacetamide], the IC50 in assay [1] (setting [4]) was 0.6 nM; in assay [3] (setting [6]), below 10 nM; in assay [2] (Homo sapiens, SK-BR-3, 120 h, SKBR3 cells, 5 days, read-out: SKBR3 Antiproliferative activity IC50) it was 2.1 nM.

For `CC[C@@]1(O)C(=O)OCc2c1cc1n(c2=O)Cc2c-1nc1cc3c(cc1c2CNC(=O)C(O)C1CC1)OCO3` (stereo partly drawn) [Compound 14-P2, 2-cyclopropyl-N—(((S)-7-ethyl-7-hydroxy-8,11-dioxo-7,8,11,13-tetrahydro-10H-[1,3]dioxolo[4,5-g]pyrano[3′,4′:6,7]indolizino[1,2-b]quinolin-14-yl)methyl)-2-hydroxyacetamide], the concentration for half-maximal inhibition (IC50) in assay [1] (setting [7]) is 1 nM; in assay [3] (setting [8]), 10 to 100 nM; in assay [2] (read-out: SKBR3 Antiproliferative activity IC50, SKBR3 cells, 5 days), 3.5 nM.

`[2H]C1([2H])Oc2cc3nc4c(c(CNC(=O)[C@@H](O)C5CC5)c3cc2O1)Cn1c-4cc2c(c1=O)COC(=O)[C@]2(O)CC` [Compound 19-P2, 2-cyclopropyl-N—(((S)-7-ethyl-7-hydroxy-8,11-dioxo-7,8,11,13-tetrahydro-10H-[1,3]dioxolo[4,5-g]pyrano[3′,4′:6,7]indolizino[1,2-b]quinolin-14-yl-2,2-d2)methyl)-2-hydroxyacetamide]: the IC50 was 1 nM in assay [1] (setting [7]) and below 10 nM in assay [3] (setting [8]).

In the case of `CC[C@@]1(O)C(=O)OCc2c1cc1n(c2=O)Cc2c-1nc1cc(F)c(Cl)c(F)c1c2CNC(=O)CO` [Compound 21, (S)-N-((9-chloro-4-ethyl-8,10-difluoro-4-hydroxy-3,14-dioxo-3,4,12,14-tetrahydro-1H-pyrano[3′,4′:6,7]indolizino[1,2-b]quinolin-11-yl)methyl)-2-hydroxyacetamide], the IC50 was 1.7 nM in assay [1] (setting [4]), below 10 nM in assay [3] (setting [6]) and 4 nM in assay [2] (setting [5]).

Consider `CC[C@@]1(O)C(=O)OCc2c1cc1n(c2=O)Cc2c-1nc1cc(F)c(Cl)c(F)c1c2CNC(=O)C(C)(C)O` [Compound 22, (S)-N-((9-chloro-4-ethyl-8,10-difluoro-4-hydroxy-3,14-dioxo-3,4,12,14-tetrahydro-1H-pyrano[3′,4′:6,7]indolizino[1,2-b]quinolin-11-yl)methyl)-2-hydroxy-2-methylpropanamide], for which the IC50 in assay [1] (setting [4]) is 1.4 nM; in assay [3] (setting [6]) it was below 10 nM; in assay [2] (setting [5]), 3.5 nM.

As for `CC[C@@]1(O)C(=O)OCc2c1cc1n(c2=O)Cc2c-1nc1cc(F)c(Cl)c(F)c1c2CNC(=O)C(O)C1CC1` (stereo partly drawn) [Compound 23, N—(((S)-9-chloro-4-ethyl-8,10-difluoro-4-hydroxy-3,14-dioxo-3,4,12,14-tetrahydro-1H-pyrano[3′,4′:6,7]indolizino[1,2-b]quinolin-11-yl)methyl)-2-cyclopropyl-2-hydroxyacetamide], the IC50 in assay [1] (setting [4]) is 3.9 nM; in assay [3] (setting [6]) it was below 10 nM; in assay [2] (setting [5]), 5.3 nM.

Regarding `CC[C@@]1(O)C(=O)OCc2c1cc1n(c2=O)Cc2c-1nc1cc(F)c(Cl)c(F)c1c2CNC(=O)[C@@H](C)O` [Compound 25, (R)—N—(((S)-9-chloro-4-ethyl-8,10-difluoro-4-hydroxy-3,14-dioxo-3,4,12,14-tetrahydro-1H-pyrano[3′,4′:6,7]indolizino[1,2-b]quinolin-11-yl)methyl)-2-hydroxypropanamide], the IC50 is 2 nM in assay [1] (setting [4]), below 10 nM in assay [3] (setting [6]) and 3.7 nM in assay [2] (setting [5]).

With `CC[C@@]1(O)C(=O)OCc2c1cc1n(c2=O)Cc2c-1nc1cc(F)c(Cl)c(F)c1c2CNC(=O)[C@H](C)O` [Compound 26, (S)-N-(((S)-9-chloro-4-ethyl-8,10-difluoro-4-hydroxy-3,14-dioxo-3,4,12,14-tetrahydro-1H-pyrano[3′,4′:6,7]indolizino[1,2-b]quinolin-11-yl)methyl)-2-hydroxypropanamide], the IC50 in assay [1] (setting [4]) was 1.6 nM; in assay [3] (setting [6]), below 10 nM; in assay [2] (setting [5]) it was 4.2 nM.

As for `CC[C@@]1(O)C(=O)OCc2c1cc1n(c2=O)Cc2c-1nc1cc3c(c(Cl)c1c2CNC(=O)C(O)C1CC1)OCO3` (stereo partly drawn) [Compound 30, N—(((S)-15-chloro-7-ethyl-7-hydroxy-8,11-dioxo-7,8,11,13-tetrahydro-10H-[1,3]dioxolo[4,5-g]pyrano[3′,4′:6,7]indolizino[1,2-b]quinolin-14-yl)methyl)-2-cyclopropyl-2-hydroxyacetamide], the IC50 in assay [1] (setting [4]) is 0.4 nM; in assay [3] (setting [6]), below 10 nM.

Consider `CC[C@@]1(O)C(=O)OCc2c1cc1n(c2=O)Cc2c-1nc1cc3c(c(Cl)c1c2CNC(=O)CO)OCO3` [Compound 31, (S)-N-((15-chloro-7-ethyl-7-hydroxy-8,11-dioxo-7,8,11,13-tetrahydro-10H-[1,3]dioxolo[4,5-g]pyrano[3′,4′:6,7]indolizino[1,2-b]quinolin-14-yl)methyl)-2-hydroxyacetamide], for which the IC50 in assay [1] (setting [4]) was 0.2 nM; in assay [3] (setting [6]) it was below 10 nM.

For `CC[C@@]1(O)C(=O)OCc2c1cc1n(c2=O)Cc2c-1nc1cc(Cl)c3c(c1c2CNC(=O)CO)CCC3` [Compound 33, (S)-N-((4-chloro-8-ethyl-8-hydroxy-9,12-dioxo-2,3,8,9,12,14-hexahydro-1H,11H-cyclopenta[f]pyrano[3′,4′:6,7]indolizino[1,2-b]quinolin-15-yl)methyl)-2-hydroxyacetamide], the IC50 in assay [1] (setting [4]) was 0.8 nM; in assay [3] (setting [6]) it was below 10 nM.

On to `CC[C@@]1(O)C(=O)OCc2c1cc1n(c2=O)Cc2c-1nc1cc(Cl)c3c(c1c2CNC(=O)C(O)C1CC1)CCC3` (stereo partly drawn) [Compound 34, N—(((S)-4-chloro-8-ethyl-8-hydroxy-9,12-dioxo-2,3,8,9,12,14-hexahydro-1H,11H-cyclopenta[f]pyrano[3′,4′:6,7]indolizino[1,2-b]quinolin-15-yl)methyl)-2-cyclopropyl-2-hydroxyacetamide], for which the IC50 in assay [1] (setting [4]) was 0.6 nM; in assay [3] (setting [6]) it was below 10 nM.

`CC[C@@]1(O)C(=O)OCc2c1cc1n(c2=O)Cc2c-1nc1cc3c(c(F)c1c2CNC(=O)C(O)C1CC1)OCO3` (stereo partly drawn) [Compound 35, 2-cyclopropyl-N-(((S)-7-ethyl-15-fluoro-7-hydroxy-8,11-dioxo-7,8,11,13-tetrahydro-10H-[1,3]dioxolo[4,5-g]pyrano[3′,4′:6,7]indolizino[1,2-b]quinolin-14-yl)methyl)-2-hydroxyacetamide]: the IC50 in assay [1] (setting [4]) was 1.2 nM; in assay [3] (setting [6]) it was below 10 nM; in assay [2] (setting [5]), 3.5 nM.
